Results reported in DBAASP.
Converted amounts (≈) assume the structure as drawn. Values belong to the compound of their own block, whether it stands above or below them.

Tests used:
Experiment in all cases: ≥ marks a high value that may be exact or a test limit, other limits are often not marked, values filed in µg/mL are converted to µM
[1] = system: Xanthomonas vesicatoria DSM 50861
[2] = system: Clavibacter michiganensis subsp. michiganensis DSM 46294
[3] = system: Pseudomonas syringae pv. tomato DC3000
[4] = system: Pseudomonas corrugata DSM 7228
[5] = system: Pseudomonas syringae pv. syringae DSM 10604
[6] = system: Pectobacterium carotovorum subsp. carotovorum DSM 30168
[7] = system: Staphylococcus aureus 90857
Alternaria alternata = system: Alternaria alternata
Cladosporium herbarum = system: Cladosporium herbarum
Botrytis cinerea = system: Botrytis cinerea
[8] = system: Staphylococcus aureus DBFIQ S21
[9] = system: Listeria monocytogenes DBFIQ LM3
[10] = system: Candida albicans ATCC 90028
[11] = system: Staphylococcus aureus NBRC 100910
[12] = system: Staphylococcus aureus SPM 101
[13] = system: Staphylococcus aureus USA 300
[14] = system: Staphylococcus aureus USA 100
Escherichia coli SPE 001 = system: Escherichia coli SPE 001
[15] = system: Pseudomonas aeruginosa ATCC 9027
[16] = system: Salmonella enterica subsp. enterica serovar Typhimurium ATCC 14028
[17] = system: Pseudomonas aeruginosa ATCC 13388
[18] = system: Escherichia coli ATCC 11219
[19] = system: Staphylococcus aureus ATCC 6538
[20] = system: Klebsiella pneumoniae ATCC 10031
[21] = system: Saccharomyces cerevisiae ATCC 44774
[22] = system: Pseudomonas putida ATCC 17426
[23] = system: Candida albicans ATCC 10231
[24] = system: Staphylococcus aureus ATCC 15752
[25] = system: Bacillus subtilis ATCC 62037
[26] = system: Streptococcus mutans ATCC 25175
[27] = system: Salmonella enterica subsp. enterica serovar Enteritidis ATCC 13076
[28] = system: Escherichia coli ATCC 27325
[29] = system: Pseudomonas sp. ATCC 15915
[30] = system: Acinetobacter baumannii ATCC 15308
[31] = system: Staphylococcus aureus ATCC 502A
Escherichia coli BL2 = system: Escherichia coli BL2
[32] = system: Micrococcus luteus ATCC 7468
[33] = system: Enterococcus faecium ATCC 19434

Structure (SMILES): CC(C)C[C@H](NC(=O)[C@H](C)NC(=O)CNC(=O)[C@H](CCCN=C(N)N)NC(=O)[C@H](Cc1ccccc1)NC(=O)[C@H](C)NC(=O)[C@H](CCCN=C(N)N)NC(=O)[C@H](Cc1ccccc1)NC(=O)[C@H](C)NC(=O)[C@H](C)NC(=O)[C@H](CC(C)C)NC(=O)[C@H](CCCN=C(N)N)NC(=O)[C@H](CCCN=C(N)N)NC(=O)[C@@H](N)CCCCN)C(=O)N[C@@H](CCCCN)C(=O)N[C@@H](CO)C(=O)N[C@H](C(=O)N[C@@H](CC(C)C)C(=O)N[C@@H](CCCCN)C(=O)N[C@@H](CCCCN)C(N)=O)C(C)C [KRRLAAFRAFRGALKSVLKK]
MIC [1]: 2.16 µM (≈ 5 µg/mL)
MIC [2]: 2.16 µM (≈ 5 µg/mL)
MIC (Alternaria alternata): ≥ 43.2 µM
MIC (Cladosporium herbarum): 8.63 µM (≈ 20 µg/mL)
MIC (Botrytis cinerea): ≥ 43.2 µM
MIC [3]: 2.16 µM (≈ 5 µg/mL)
MIC [4]: 1.08 µM (≈ 2.5 µg/mL)
MIC [5]: 2.16 µM (≈ 5 µg/mL)
MIC [6]: 17.3 µM (≈ 40 µg/mL)

Structure (SMILES): CC(C)C[C@H](NC(=O)[C@H](CCCCN)NC(=O)[C@H](CC(C)C)NC(=O)[C@H](CC(C)C)NC(=O)[C@H](CC(C)C)NC(=O)[C@H](CCCCN)NC(=O)[C@H](CC(C)C)NC(=O)[C@@H](N)CCCCN)C(=O)N[C@@H](CCCCN)C(N)=O [KLKLLLKLK]
MIC [10]: ≥ 100 µM
MIC [11]: ≥ 117 µM
MIC [12]: 1.82 µM (≈ 2 µg/mL)
MIC [13]: ≥ 50 µM
MIC [14]: ≥ 50 µM
MIC (Escherichia coli SPE 001): 7.3 µM (≈ 7.99 µg/mL)
MIC [15]: 12.5 µM (≈ 13.7 µg/mL)

Structure (SMILES): CC[C@H](C)[C@H](NC(=O)CN)C(=O)N[C@@H](CCCN=C(N)N)C(=O)N[C@@H](CCCN=C(N)N)C(=O)N[C@H](C(=O)N[C@@H](CC(C)C)C(=O)N[C@@H](CCCN=C(N)N)C(=O)N[C@@H](Cc1ccc(O)cc1)C(=O)NCC(=O)N[C@@H](CCCN=C(N)N)C(=O)N[C@@H](CCCN=C(N)N)C(=O)N[C@@H](CO)C(N)=O)[C@@H](C)CC [GIRRILRYGRRS]
MIC [16]: 10 µM (≈ 15 µg/mL)
MIC [17]: 20 µM (≈ 30 µg/mL)
MIC [18]: 3 µM (≈ 4.51 µg/mL)
MIC [19]: 10 µM (≈ 15 µg/mL)
MIC [20]: 5 µM (≈ 7.51 µg/mL)

Next, values leading:

MIC [1]: 1.66 µM (≈ 2.5 µg/mL)
MIC [2]: 1.66 µM (≈ 2.5 µg/mL)
MIC [3]: 3.31 µM (≈ 5 µg/mL)
MIC [4]: 3.31 µM (≈ 5 µg/mL)
MIC [5]: 0.331 µM (≈ 0.5 µg/mL)
MIC [6]: 6.63 µM (≈ 9.99 µg/mL)
MIC [7]: ≥ 62.5 µM
Structure (SMILES): CC[C@H](C)[C@H](NC(=O)[C@@H](NC(=O)[C@H](CCCCN)NC(=O)[C@H](CCCCN)NC(=O)[C@@H](NC(=O)[C@@H](NC(=O)[C@H](CCCCN)NC(=O)[C@@H](NC(=O)[C@H](CCCCN)NC(=O)[C@H](CCCCN)NC(=O)[C@H](CCCCN)NC(=O)[C@@H](N)CCCN=C(N)N)[C@@H](C)CC)[C@@H](C)CC)[C@@H](C)CC)[C@@H](C)CC)C(N)=O [RKKKIKIIKKII]

MIC [8]: 6.6 µM (≈ 16 µg/mL)
MIC [9]: 1.7 µM (≈ 4.12 µg/mL)
Structure (SMILES): CC[C@H](C)[C@H](NC(=O)[C@H](C)NC(=O)[C@@H](NC(=O)[C@H](C)NC(=O)CNC(=O)[C@H](CCSC)NC(=O)[C@H](CCC(N)=O)NC(=O)[C@H](CC(C)C)NC(=O)[C@H](CO)NC(=O)[C@@H](N)Cc1ccc(O)cc1)[C@@H](C)O)C(=O)N[C@@H](CCCCN)C(=O)N[C@@H](CCC(N)=O)C(=O)N[C@H](C(=O)N[C@@H](CCCCN)C(=O)N[C@@H](CCCCN)C(=O)N[C@@H](CC(C)C)C(=O)N[C@@H](Cc1ccccc1)C(=O)N[C@@H](CCCCN)C(=O)N[C@@H](CCCCN)C(=O)N[C@@H](CCCCN)C(=O)NCC(=O)NCC(N)=O)C(C)C [YSLQMGATAIKQVKKLFKKKGG]

MIC [21]: 0.726 µM (≈ 2 µg/mL)
MIC [22]: 1.45 µM (≈ 4 µg/mL)
MIC [23]: 0.726 µM (≈ 2 µg/mL)
MIC [24]: 0.726 µM (≈ 2 µg/mL)
MIC [25]: 0.726 µM (≈ 2 µg/mL)
MIC [26]: 0.726 µM (≈ 2 µg/mL)
MIC [27]: 1.45 µM (≈ 4 µg/mL)
MIC [28]: 0.726 µM (≈ 2 µg/mL)
Structure (SMILES): CC[C@H](C)[C@H](NC(=O)[C@@H]1CCCN1C(=O)[C@H](Cc1c[nH]c2ccccc12)NC(=O)[C@H](CCC(N)=O)NC(=O)[C@H](CCCN=C(N)N)NC(=O)[C@@H](NC(=O)[C@@H](NC(=O)[C@@H](N)CCCN=C(N)N)C(C)C)C(C)C)C(=O)NCC(=O)N[C@@H](CCCN=C(N)N)C(=O)N[C@H](C(=O)N[C@H](C(=O)N[C@@H](CCCN=C(N)N)C(=O)N[C@@H](CCCN=C(N)N)C(=O)N[C@H](C(=O)N[C@H](C(=O)N[C@@H](CCCN=C(N)N)C(=O)N[C@@H](CCCN=C(N)N)C(=O)N[C@H](C(=O)N[C@H](C(=O)N[C@@H](CCCN=C(N)N)C(=O)N[C@@H](CC(C)C)C(=O)O)C(C)C)C(C)C)C(C)C)C(C)C)C(C)C)C(C)C [RVVRQWPIGRVVRRVVRRVVRL]

MIC [29]: 7 µM (≈ 19.3 µg/mL)
MIC [30]: 1.1 µM (≈ 3.03 µg/mL)
MIC [31]: 1.5 µM (≈ 4.13 µg/mL)
MIC (Escherichia coli BL2): 7 µM (≈ 19.3 µg/mL)
MIC [32]: 7 µM (≈ 19.3 µg/mL)
MIC [33]: 7 µM (≈ 19.3 µg/mL)
Structure (SMILES): CC[C@H](C)[C@H](NC(=O)[C@H](C)NC(=O)[C@H](CCCN=C(N)N)NC(=O)[C@H](CCSC)NC(=O)[C@H](C)NC(=O)[C@@H](NC(=O)[C@@H](N)[C@@H](C)O)[C@@H](C)CC)C(=O)N[C@@H](CC(N)=O)C(=O)N[C@@H](CC(N)=O)C(=O)N[C@@H](Cc1ccc(O)cc1)C(=O)N[C@@H](CCCN=C(N)N)C(=O)N[C@@H](Cc1c[nH]c2ccccc12)C(=O)N[C@@H](CCCN=C(N)N)C(=O)N[C@@H](CO)C(=O)N[C@@H](CCCCN)C(=O)N[C@@H](CC(N)=O)C(=O)N[C@@H](CCC(N)=O)C(=O)N[C@@H](CC(N)=O)C(=O)N[C@H](C(=O)N[C@@H](Cc1ccccc1)C(=O)N[C@@H](CC(C)C)C(=O)N[C@@H](CCCN=C(N)N)C(=O)O)[C@@H](C)O [TIAMRAINNYRWRSKNQNTFLR]
